In the first assay the target is PKM2 (Homo sapiens, UniProt P14618). Briefly: PKM2 Assay (activation, LDH-coupled, absorbance at 340 nm). Format: biochemical. As to conditions: Table 4. The essentials: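 Human PKM2 (50 ng/well) was preincubated with compound and coupling mix for 30 min at 4 °C without ADP. Reactions were then started with ADP (0.7 mM) alongside PEP 0.15 mM, NADH 180 μM and LDH, in Tris pH 7.5/KCl/MgCl2/DTT/BSA buffer. A340 was followed at 25 °C and activation reported as AC50.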
Chain of PKM2 (P14618 whole entry): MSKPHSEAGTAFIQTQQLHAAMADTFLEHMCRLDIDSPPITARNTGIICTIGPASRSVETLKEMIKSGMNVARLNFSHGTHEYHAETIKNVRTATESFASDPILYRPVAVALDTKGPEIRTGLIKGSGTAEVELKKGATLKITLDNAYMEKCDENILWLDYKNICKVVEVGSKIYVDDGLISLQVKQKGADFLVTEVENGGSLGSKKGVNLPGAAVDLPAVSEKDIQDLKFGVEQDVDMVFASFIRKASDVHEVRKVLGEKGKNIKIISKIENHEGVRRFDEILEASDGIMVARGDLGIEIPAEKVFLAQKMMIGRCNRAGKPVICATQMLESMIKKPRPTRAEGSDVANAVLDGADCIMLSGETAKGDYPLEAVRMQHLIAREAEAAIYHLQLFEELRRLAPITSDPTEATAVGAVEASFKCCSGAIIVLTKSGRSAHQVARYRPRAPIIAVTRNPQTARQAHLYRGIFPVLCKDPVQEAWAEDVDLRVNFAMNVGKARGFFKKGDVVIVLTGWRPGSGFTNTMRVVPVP
Take `CC1CN(C(=O)c2ccccn2)CC(C)N1C(=O)c1ccc(NS(=O)(=O)c2cccc3cccnc23)cc1` (racemic) [Compound 116]: the AC50 is 1000 to 20000 nM.
The same measure, in the same setting: to `C[C@H]1CN(CC2CCC2)CCN1C(=O)c1ccc(NS(=O)(=O)c2cccc3cccnc23)cc1` [Compound 207, (S)—N-(4-(4-(cyclobutylmethyl)-2-methylpiperazine-1-carbonyl)phenyl)quinoline-8-sulfonamide] belongs 100 to 500 nM; to `O=C(c1ccc(NS(=O)(=O)c2cccc3cccnc23)cc1)N1CC2CCC(C1)N2CC1CC1` [Compound 221, N-(4-(8-(cyclopropylmethyl)-3,8-diazabicyclo[3.2.1]octane-3-carbonyl)phenyl)quinoline-8-sulfonamide], below 100 nM; to `CC[C@H]1CN(C(C)c2cc(F)cc(F)c2)CCN1C(=O)c1ccc(NS(=O)(=O)c2cccc3cccnc23)cc1` (stereo partly drawn) [Compound 161, N-(4-((2S)-4-(1-(3,5-difluorophenyl)ethyl)-2-ethylpiperazine-1-carbonyl)phenyl)quinoline-8-sulfonamide], below 100 nM.
As for `CC(c1cc(F)c(F)cc1F)N1CCN(C(=O)c2ccc(NS(=O)(=O)c3cccc4cccnc34)cc2)[C@@H](C)C1` (stereo partly drawn) [Compound 174], the AC50 was in the range of 100 to 500 nM.
The molecule `C[C@H]1CN(Cc2ccc(F)cc2)CCN1C(=O)c1ccc(NS(=O)(=O)c2cccc3cccnc23)cc1` [Compound 152, (S)—N-(4-(4-(4-fluorobenzyl)-2-methylpiperazine-1-carbonyl)phenyl)quinoline-8-sulfonamide] returned an AC50 below 100 nM.
As to `CC(c1ccc(Cl)c(F)c1)N1CCN(C(=O)c2ccc(NS(=O)(=O)c3cccc4cccnc34)cc2)[C@@H](C)C1` (stereo partly drawn) [Compound 182], the AC50 was in the range of 100 to 500 nM.
Still for that read-out and setting: to `C[C@H]1CN(CC2CCCCO2)CCN1C(=O)c1ccc(NS(=O)(=O)c2cccc3cccnc23)cc1` (stereo partly drawn) [Compound 156, N-(4-((2S)-2-methyl-4-((tetrahydro-2H-pyran-2-yl)methyl)piperazine-1-carbonyl)phenyl)quinoline-8-sulfonamide] belongs 500 to 1000 nM; to `C[C@H]1CN(C[C@H]2CCCO2)CCN1C(=O)c1ccc(NS(=O)(=O)c2cccc3cccnc23)cc1` (stereo in doubt) [Compound 211, N-(4-((2S)-2R-methyl-4-((tetrahydrofuran-2-yl)methyl)piperazine-1-carbonyl)phenyl)quinoline-8-sulfonamide], below 100 nM.
With `C[C@@H]1CN(CC2CC2)CCN1C(=O)c1ccc(NS(=O)(=O)c2cccc3cccnc23)cc1` [Compound 113, (R)—N-(4-(4-(cyclopropylmethyl)-2-methylpiperazine-1-carbonyl)phenyl)quinoline-8-sulfonamide], the AC50 was below 100 nM.
`CC(C)[C@H]1CN(Cc2ccc(F)cc2)CCN1C(=O)c1ccc(NS(=O)(=O)c2cccc3cccnc23)cc1` [Compound 175] came in with an AC50 of 1000 to 20000 nM.
Take `C[C@@H]1CN(C(=O)O[C@@H]2CCOC2)CCN1C(=O)c1ccc(NS(=O)(=O)c2cccc3cccnc23)cc1` [Compound 126, (R)—((R)-tetrahydrofuran-3-yl)-3-methyl-4-(4-(quinoline-8-sulfonamido)benzoyl)piperazine-1-carboxylate]: the AC50 fell in the range of 100 to 500 nM.
`CCOC(=O)N1CCN(C(=O)c2ccc(NS(=O)(=O)c3cccc4cccnc34)cc2)[C@@H](C)C1` [Compound 107, (S)-Ethyl 3-methyl-4-(4-(quinoline-8-sulfonamido)benzoyl)piperazine-1-carboxylate] came in with an AC50 of 500 to 1000 nM.
In turn, `CC1CN(CC2CCOC2)CC(C)N1C(=O)c1ccc(NS(=O)(=O)c2cccc3cccnc23)cc1` (stereo not drawn) [Compound 204, N-(4-(2,6-dimethyl-4-((tetrahydrofuran-3-yl)methyl)piperazine-1-carbonyl)phenyl)quinoline-8-sulfonamide] had an AC50 of 500 to 1000 nM.
`C[C@H]1CN(Cc2c(F)cc(F)cc2F)CCN1C(=O)c1ccc(NS(=O)(=O)c2cccc3cccnc23)cc1` [Compound 164, (S)—N-(4-(2-methyl-4-(2,4,6-trifluorobenzyl)piperazine-1-carbonyl)phenyl)quinoline-8-sulfonamide] had an AC50 of 100 to 500 nM.
Turning to `C[C@H]1CN(Cc2cc(F)cc(F)c2)CCN1C(=O)c1ccc(NS(=O)(=O)c2cccc3cccnc23)cc1Cl` [Compound 179], the AC50 lay in the range of 100 to 500 nM.
`C[C@H]1CN(Cc2c(F)ccc(F)c2F)CCN1C(=O)c1ccc(NS(=O)(=O)c2cccc3cccnc23)cc1` [Compound 141, (S)—N-(4-(2-methyl-4-(2,3,6-trifluorobenzyl)piperazine-1-carbonyl)phenyl)quinoline-8-sulfonamide] had an AC50 of 100 to 500 nM.
`C[C@@H]1CN(CC2CCCO2)CCN1C(=O)c1ccc(NS(=O)(=O)c2cccc3cccnc23)cc1` (stereo partly drawn) [Compound 147, N-(4-((2R)-2-methyl-4-((tetrahydrofuran-2-yl)methyl)piperazine-1-carbonyl)phenyl)quinoline-8-sulfonamide] displayed an AC50 below 100 nM.

The assay is the same for the next values; noted with them: Table 5.
`CCOC(=O)N1CCN(C(=O)c2ccc(NS(=O)(=O)c3cccc4cccnc34)nc2)CC1` [Compound 446, Ethyl 4-(6-(quinoline-8-sulfonamido)nicotinoyl)piperazine-1-carboxylate] showed an AC50 of 1000 to 20000 nM.
Take `O=C(c1ccc(NS(=O)(=O)c2cccc3cccnc23)cc1F)N1CCN(CC2CC2)CC1` [Compound 424, N-(4-(4-(cyclopropylmethyl)piperazine-1-carbonyl)-3-fluorophenyl)quinoline-8-sulfonamide]: the AC50 was 100 to 500 nM.
Consider `C[C@H](c1ccccc1)N1CCN(C(=O)c2ccc(NS(=O)(=O)c3cccc4cccnc34)cc2)CC1` [Compound 388, (R)—N-(4-(4-(1-phenylethyl)piperazine-1-carbonyl)phenyl)quinoline-8-sulfonamide], for which the AC50 was below 100 nM.
In turn, `CC(c1cc(F)cc(F)c1)N1CCN(C(=O)c2ccc(NS(=O)(=O)c3cccc4cccnc34)cc2)CC1` (stereo not drawn) [Compound 331, N-(4-(4-(1-(3,5-difluorophenyl)ethyl)piperazine-1-carbonyl)phenyl)quinoline-8-sulfonamide] showed an AC50 below 100 nM.
Still for that read-out and setting: to `C[C@@H](c1ccccc1)N1CCN(C(=O)c2ccc(NS(=O)(=O)c3cccc4cccnc34)cc2)CC1` [Compound 387, (S)—N-(4-(4-(1-phenylethyl)piperazine-1-carbonyl)phenyl)quinoline-8-sulfonamide] belongs below 100 nM.
Turning to `O=C(c1ccc(NS(=O)(=O)c2cccc3cccnc23)nc1)N1CCN(CC2CC2)CC1` [Compound 411, N-(5-(4-(cyclopropylmethyl)piperazine-1-carbonyl)pyridin-2-yl)quinoline-8-sulfonamide], the AC50 was 1000 to 20000 nM.
As to `O=C(c1ccc(NS(=O)(=O)c2cccc3cccnc23)cc1)N1CCN(Cc2cc(F)cc(F)c2)CC1` [Compound 394, N-(4-(4-(3,5-difluorobenzyl)piperazine-1-carbonyl)phenyl)quinoline-8-sulfonamide], the AC50 was below 100 nM.
Molecule `O=C(c1ccc(NS(=O)(=O)c2cccc3cccnc23)c(OC(F)(F)F)c1)N1CCN(Cc2ccc(Cl)cc2F)CC1` [Compound 339, N-(4-(4-(4-chloro-2-fluorobenzyl)piperazine-1-carbonyl)-2-(trifluoromethoxy)phenyl)quinoline-8-sulfonamide] yielded an AC50 of 100 to 500 nM.
The molecule `CC(c1c(F)ccc(F)c1F)N1CCN(C(=O)c2ccc(NS(=O)(=O)c3cccc4cccnc34)cc2)CC1` (stereo not drawn) [Compound 404, N-(4-(4-(1-(2,3,6-trifluorophenyl)ethyl)piperazine-1-carbonyl)phenyl)quinoline-8-sulfonamide] returned an AC50 below 100 nM.
For `COc1cc(NS(=O)(=O)c2cccc3cccnc23)ccc1C(=O)N1CCN(C(C)(C)c2ccccc2)CC1` [Compound 355, N-(3-methoxy-4-(4-(2-phenylpropan-2-yl)piperazine-1-carbonyl)phenyl)quinoline-8-sulfonamide], the AC50 is below 100 nM.
`O=C(c1ccc(NS(=O)(=O)c2cccc3cccnc23)cc1Cl)N1CCN(Cc2cc(F)c(F)c(F)c2)CC1` [Compound 434, N-(3-chloro-4-(4-(3,4,5-trifluorobenzyl)piperazine-1-carbonyl)phenyl)quinoline-8-sulfonamide] displayed an AC50 below 100 nM.
Turning to `O=C(c1ccc(NS(=O)(=O)c2cccc3cccnc23)cc1Cl)N1CCN(Cc2ccc(F)cc2)CC1` [Compound 431, N-(3-chloro-4-(4-(4-fluorobenzyl)piperazine-1-carbonyl)phenyl)quinoline-8-sulfonamide], the AC50 was below 100 nM.
Same read-out and setting: as for `O=C(c1ccc(NS(=O)(=O)c2cccc3cccnc23)nc1)N1CCN(Cc2ccc(F)cc2)CC1` [Compound 412, N-(5-(4-(4-fluorobenzyl)piperazine-1-carbonyl)pyridin-2-yl)quinoline-8-sulfonamide], the figure is 100 to 500 nM.
Consider `O=C(c1ccc(NS(=O)(=O)c2cccc3cccnc23)c(OC(F)(F)F)c1)N1CCN(Cc2ccc(F)c(F)c2)CC1` [Compound 378, N-(4-(4-(3,4-difluorobenzyl)piperazine-1-carbonyl)-2-(trifluoromethoxy)phenyl)quinoline-8-sulfonamide], for which the AC50 was 100 to 500 nM.
Regarding `Cc1cnc(C(=O)N2CCN(C(=O)c3ccc(NS(=O)(=O)c4cccc5cccnc45)c(OC(F)(F)F)c3)CC2)cn1` [Compound 325], the AC50 is 1000 to 20000 nM.
`O=C(c1ccc(NS(=O)(=O)c2cccc3cccnc23)c(OC(F)(F)F)c1)N1CCN(C2(c3ccc(F)cc3)CC2)CC1` [Compound 402, N-(4-(4-(1-(4-fluorophenyl)cyclopropyl)piperazine-1-carbonyl)-2-(trifluoromethoxy)phenyl)quinoline-8-sulfonamide] displayed an AC50 of 100 to 500 nM.
With `O=C(c1ccc(NS(=O)(=O)c2cccc3cccnc23)cc1Cl)N1CCN(CC2CCOCC2)CC1` [Compound 440, N-(3-chloro-4-(4-((tetrahydro-2H-pyran-4-yl)methyl)piperazine-1-carbonyl)phenyl)quinoline-8-sulfonamide], the AC50 lay within 100 to 500 nM.
For `O=C(c1ccc(NS(=O)(=O)c2cccc3cccnc23)cc1)N1CCN(Cc2cc[nH]n2)CC1` [Compound 384], the AC50 is below 100 nM.

The values above are taken from patent publication US8889667B2 (Agios Pharmaceuticals, Inc, priority 2010, dated 2014).
